Key:
bipolar patients = conditions: A. Fagiolini et al., 2002, 2003; cited from earlier work
[1] = test system: adipocyte-differentiated human adipose stem cells; test: Effect of GSK3B inhibitor on dexamethasone-induced circadian gene expression profiles of human ASCs (qRT-PCR); format: cell-based; conditions: 30 μM in serum-free media after 2 hr 1 μM dexamethasone, FIG. 12
Protocol: Treatment of human adipose derived stem cells with dexamethasone was shown above to induce a circadian rhythm in vitro, and studies were conducted to see if this induction would be blocked by the addition of a glycogen synthase kinase 3 beta inhibitor. Confluent cultures of human ASCs were induced by exposure to 1 micromolar dexamethasone for a period of 2 hr. The medium was changed to either serum-free media (SF), or serum-free media with 30 μM SB415286 (SB415, an inhibitor of glycogen synthase kinase 3 beta). Individual cultures were harvested for total RNA at the indicated times and used for qRT-PCR analysis of gene expression of Bmal1, Per3, and Rev-erbα, and normalized relative to the corresponding Cyclophilin B levels.

[2] = test system: adipocyte-differentiated human ASCs; test: Circadian gene expression induction in adipocyte-differentiated human ASCs (qRT-PCR); format: cell-based
From the text: Human Adipose-Derived Stem Cell (ASCs) Isolation and Expansion. All protocols were reviewed and approved by the Pennington Biomedical Research Center Institutional Research Board (IRB; Baton Rouge, La.) prior to the study. Liposuction aspirates from subcutaneous adipose tissue sites were obtained from female subjects undergoing elective procedures in local plastic surgical offices. Tissues were washed 3-4 times with phosphate-buffered saline (PBS) and suspended in an equal volume of PBS supplemented with 1% bovine serum and 0.1% collagenase type I (Worthington Biochemical Corporation, Lakewood, N.J.) prewarmed to 37° C. The tissue was then placed in a shaking water bath at 37° C. with continuous agitation for 60 min and centrifuged for 5 min at 300-500×g at room temperature. The supernatant, containing mature adipocytes, was aspirated. The pellet was identified as the stromal vascular fraction (SVF). Portions of the SVF were resuspended in cryopreservation medium (10% dimethylsulfoxide, 10% DMEM/F 12 Ham's, 80% fetal bovine serum), frozen at −80° C. in an ethanol-jacketed, closed container, and subsequently stored in liquid nitrogen. Portions of the SVF were used in colony forming unit assays (see below). The remaining cells of the SVF were suspended and plated immediately in T225 flasks in stromal medium (DMEM/F 12 Ham's, 10% fetal bovine serum (Hyclone, Logan, Utah), 100 U penicillin/100 μg streptomycin/0.25 μg Fungizone) at a density of 0.156 ml of tissue digest/sq cm of surface area for expansion and culture. This initial passage of the primary cell culture was referred to as “Passage 0” (P0). Following the first 48 hr of incubation at 37° C. at 5% CO2, the cultures were washed with PBS and maintained in Stromal Media until they achieved 75-90% confluence (approximately 6 days in culture). The cells were passaged by trypsin (0.05%) digestion and plated at a density of 5,000 cells/cm^2 (“Passage 1”). Cell viability and numbers at the time of passage were determined by trypan blue exclusion and hemacytometer cell counts. Cells were passaged repeatedly after achieving a density of 75-90% (approximately 6 days in culture) until Passage 2. […]
Quantitative Real-time RT-PCR (qRT-PCR) for Human ASCs: Total RNA was purified from the ASCs as described above for mouse tissues using TriReagent (Molecular Research Center) according to the manufacturer's specifications. […]

[3] = test system: undifferentiated human ASCs; test: Circadian gene expression induction in undifferentiated human ASCs (qRT-PCR); format: cell-based; conditions: for Rev-erbα and Rev-erbβ expression zenith, time: three donors
From the text: Human Adipose-Derived Stem Cell (ASCs) Isolation and Expansion. All protocols were reviewed and approved by the Pennington Biomedical Research Center Institutional Research Board (IRB; Baton Rouge, La.) prior to the study. Liposuction aspirates from subcutaneous adipose tissue sites were obtained from female subjects undergoing elective procedures in local plastic surgical offices. Tissues were washed 3-4 times with phosphate-buffered saline (PBS) and suspended in an equal volume of PBS supplemented with 1% bovine serum and 0.1% collagenase type I (Worthington Biochemical Corporation, Lakewood, N.J.) prewarmed to 37° C. The tissue was then placed in a shaking water bath at 37° C. with continuous agitation for 60 min and centrifuged for 5 min at 300-500×g at room temperature. The supernatant, containing mature adipocytes, was aspirated. The pellet was identified as the stromal vascular fraction (SVF). Portions of the SVF were resuspended in cryopreservation medium (10% dimethylsulfoxide, 10% DMEM/F 12 Ham's, 80% fetal bovine serum), frozen at −80° C. in an ethanol-jacketed, closed container, and subsequently stored in liquid nitrogen. Portions of the SVF were used in colony forming unit assays (see below). The remaining cells of the SVF were suspended and plated immediately in T225 flasks in stromal medium (DMEM/F 12 Ham's, 10% fetal bovine serum (Hyclone, Logan, Utah), 100 U penicillin/100 μg streptomycin/0.25 μg Fungizone) at a density of 0.156 ml of tissue digest/sq cm of surface area for expansion and culture. This initial passage of the primary cell culture was referred to as “Passage 0” (P0). […] The cells were passaged by trypsin (0.05%) digestion and plated at a density of 5,000 cells/cm^2 (“Passage 1”). Cell viability and numbers at the time of passage were determined by trypan blue exclusion and hemacytometer cell counts. Cells were passaged repeatedly after achieving a density of 75-90% (approximately 6 days in culture) until Passage 2.
Circadian Induction: The medium was removed from confluent cultures of undifferentiated or adipocyte-differentiated human ASCs in 6 well plates and replaced with DMEM/Ham's F12 medium and 100 U penicillin/100 μg streptomycin/0.25 μg Fungizone alone or supplemented with one of the following: 30% FBS, 1 μM dexamethasone, or 5 μM rosiglitazone. The ASCs were exposed to the inductive agents for 2 hr. A single plate under each condition was harvested for total RNA after 1 hr of induction. After 2 hr, the medium in the remaining plates was replaced with serum free DMEM/Ham's F12 medium and 100 U penicillin/100 μg streptomycin/0.25 μg Fungizone alone.
Quantitative Real-time RT-PCR (qRT-PCR) for Human ASCs: Total RNA was purified from the ASCs as described above for mouse tissues using TriReagent (Molecular Research Center) according to the manufacturer's specifications. Approximately 2 μg of total RNA was reverse transcribed using Moloney Murine Leukemia Virus Reverse Transcriptase (MMLV-RT; Promega), with Oligo dT at 42° C. for 1 hr in a 20 μL reaction. Primers for genes of interest (listed in Table 2) were identified using Primer Express software (Applied Biosystems). All primers were based on the sequence of the corresponding human mRNA and were designed to amplify across at least one exon/intron junction. qRT-PCR was performed on diluted cDNA samples with SYBR® Green PCR Master Mix (Applied Biosystems) using the 7900 Real Time PCR system (Applied Biosystems) under universal cycling conditions (95° C. for 10 min; 40 cycles of 95° C. for 15 sec; then 60° C. for 1 min). All results were normalized relative to a Cyclophilin B expression control.
Periodicity Analysis: Periodicity of the circadian data obtained by qRT-PCR was tested with Time Series Analysis-Single Cosinor v. 6.0 software (Expert Soft Technologie). […] Model was also tested for validity at the 0.950 probability level (ANOVA).

[4] = adipocyte-differentiated vs undifferentiated ASCs
[5] = 1 μM for 2 hr, then serum free medium, four donors, FIG. 8B
[6] = undifferentiated ASCs, 2 hr exposure

SMILES: [Cl-].[Li+] [lithium chloride]
- weight change under pharmacotherapy (bipolar patients): gain weight rapidly and become obese

SMILES: O=C1NC(=O)C(c2ccccc2[N+](=O)[O-])=C1Nc1ccc(O)c(Cl)c1 [SB415286]
- effect on circadian cycle of gene expression [1]: shifted and lengthened
- mRNA induction profile delayed and shifted (Bmal1, Per3, Rev-erb alpha) ([1]; vs serum-free media alone): 6 to 9 h

SMILES: C[C@@H]1C[C@H]2[C@@H]3CCC4=CC(=O)C=C[C@]4(C)[C@@]3(F)[C@@H](O)C[C@]2(C)[C@@]1(O)C(=O)CO [dexamethasone]
- Per 3 subsequent peak, time ([2]; adipocyte-differentiated ASCs, 2 hr exposure, three donors): 20 to 24 h
- Rev-erbα and Rev-erbβ phase-advance relative to the undifferentiated ASCs [2, 4]: ~8 h
- Bmal1 peak levels, first peak, time following induction [3, 5]: 16 to 20 h
- Bmal1 peak levels, second peak, time following induction [3, 5]: 40 h
- Per1, Per3, and Cry2 expression peaks, time after induction [3, 5]: 28 to 32 h
- immediate-early induction of Per1, Per3, and Cry2 mRNAs, time after induction [3, 5]: 1 to 4 h
- phase shift of Bmal1 relative to Per1, Per3, and Cry2 ([3]; 1 μM for 2 hr, four donors): 8 to 12 h
- Rev-erbα peak levels, time post induction ([3]; 1 μM for 2 hr, four donors, FIG. 8B): 24 h
- Rev-erbα and Rev-erbβ expression zenith, time [3, 6]: 24 h

SMILES: CN(CCOc1ccc(CC2SC(=O)NC2=O)cc1)c1ccccn1 (stereo not shown) [thiazolidinedione, rosiglitazone]
- Per 3 peak expression earlier in adipocyte-differentiated than in undifferentiated ASCs [2, 4]: approximately 4 hr
- Rev-erbα and Rev-erbβ phase-advance relative to the undifferentiated ASCs [2, 4]: ~8 h
- Per 3 immediate early response [3, 6]: Neither 30% serum nor thiazolidinedione initiated an immediate early response
- Rev-erbα and Rev-erbβ expression zenith, time [3, 6]: 24 h

— patent US20090202659A1, “Modulation of Peripheral Clocks in Adipose Tissue” (priority 2005, published 2009)
